# Measured values as given in EPA's ToxValDB 9.5 (doi:10.2903/j.efsa.2014.3812).
# Assays:
# Apis mellifera = conditions: acute, mortality
# Daphnia magna = conditions: chronic/long-term; duration: 21 days; reproduction
# Folsomia candida = conditions: chronic/long-term
# Hypoaspis aculeifer = conditions: chronic/long-term
# Typhlodromus pyri = assay: LR50; higher = less toxic; conditions: not reported; mortality
compound,measurement,setting,value
"O=C(O)COc1ccc(Cl)cc1Cl [2,4-Dichlorophenoxyacetic acid]",LD50,Apis mellifera; dermal,> 100 µg/piece
same,LD50,"Apis mellifera; oral, unspecified",94 µg/piece
same,LD50,"Colinus virginianus; acute, oral",500 mg/kg-day
same,NOAEL,Colinus virginianus; reproduction developmental,100 mg/kg-day
same,NOEC,Daphnia magna,38.4 mg/L
same,NOEC,Folsomia candida,1.25 mg/kg
same,NOEC,Hypoaspis aculeifer,5 mg/kg
same,LC50,"Pimephales promelas; acute, duration: 96 hours, mortality",100 µg/mL
same,NOEC,"Pimephales promelas; chronic/long-term, duration: 32 days, growth",63.4 mg/L
same,LD50,Rattus norvegicus; acute,486 mg/kg-day
same,NOAEL,"Rattus norvegicus; acute, clinical signs",75 mg/kg-day
same,NOAEL,Rattus norvegicus; chronic,20.6 mg/kg-day
same,NOAEL,"Rattus norvegicus; chronic, duration: 2 years, organ weight",5 mg/kg-day
same,NOAEL,"Rattus norvegicus; subchronic, duration: 90 days, oral, histopathology: nonneoplastic",15 mg/kg-day
same,LC50,"Tagia sp.; acute, duration: 14 days, mortality",350 mg/kg
same,NOEC,"Tagia sp.; chronic/long-term, duration: 8 weeks",62.5 mg/kg
same,LR50,Typhlodromus pyri,> 3000 g/ha
